# Source: US8354447B2, “mGLU receptors antagonists for treating disorders associated with mGLU receptors including addiction and depression” (The Scripps Research Institute, priority 2002, dated 2013)
# Structures can show the parent of a compound that is named as a salt.
# Legend:
# [1] = tested on: male Wistar rats; settings: 5 mg/kg fluoxetine alone (Harrison et al. 2001); cited from earlier work
# [2] = tested on: male Wistar rats; experiment: Brain stimulation reward (ICSS) under baseline conditions, paroxetine and p-MPPI; format: in vivo, rat
# Procedure: Male Wistar rats (Charles River, Hollister, Calif.) (300-320 g at the start of the experiments) were housed in pairs in a temperature and humidity controlled environment with a 12 hr light/dark cycle. Food and water were available ad libitum. A different set of subjects was used for each experiment. All subjects were treated in accordance with the National Institutes of Health “Guide for the Care and Use of Laboratory Animals,” and the animal facilities and the experimental protocols were in accordance with the Association for the Assessment and Accreditation of Laboratory Animal Care. Most of the behavioral testing was conducted during the light phase of the subjects' light/dark cycle, unless otherwise dictated by the experimental design due to time-course assessment of behavioral parameters. Apparatus The experimental apparatus consisted of 16 Plexiglas chambers (30.5×30×17 cm) (Med Associates Inc., St. Albans, Vt.) encased in sound-attenuating boxes (San Diego Instruments, San Diego, Calif.). Each operant chamber consisted of a stainless steel grid floor and a metal wheel manipulandum located on one wall, which required a 0.2 N force to rotate it a quarter turn. Gold-contact swivel commutators and bipolar leads connected the animals in the stimulation circuit (Plastics One, Roanoke, Va.). Brain stimulation was administered by constant current stimulators (Stimtek 1200, San Diego Instruments, San Diego, Calif.). […] During a 2 sec period immediately following a positive response, further responses were recorded as extra responses but had no consequence. If no response occurred during the 7.5 sec limited hold period a negative response was recorded. […] Thus, during each session, four current-thresholds were recorded and the mean of these values was taken as the current-threshold for each subject for each test session. Response Latency: The latency between the onset of the non-contingent stimulus and a positive response was recorded as the response latency. […]
# [3] = tested on: male Wistar rats; experiment: Reward deficits during amphetamine withdrawal (ICSS thresholds, response latencies, body weight); settings: for response latencies during withdrawal: 36 hr after the final amphetamine or saline injection; for return to baseline reward threshold levels before the amphetamine-withdrawing non-drug-treated rats: acute treatment prior to the 36 hr test, paroxetine 1.25 mg/kg, p-MPPI 3 mg/kg; for body weight during amphetamine withdrawal: amphetamine-exposed rats; for reward thresholds: saline-exposed animals, paroxetine 1.25 mg/kg or p-MPPI 3 mg/kg
# Procedure: Male Wistar rats (Charles River, Hollister, Calif.) (300-320 g at the start of the experiments) were housed in pairs in a temperature and humidity controlled environment with a 12 hr light/dark cycle. Food and water were available ad libitum. A different set of subjects was used for each experiment. All subjects were treated in accordance with the National Institutes of Health “Guide for the Care and Use of Laboratory Animals,” and the animal facilities and the experimental protocols were in accordance with the Association for the Assessment and Accreditation of Laboratory Animal Care. Most of the behavioral testing was conducted during the light phase of the subjects' light/dark cycle, unless otherwise dictated by the experimental design due to time-course assessment of behavioral parameters. Apparatus The experimental apparatus consisted of 16 Plexiglas chambers (30.5×30×17 cm) (Med Associates Inc., St. Albans, Vt.) encased in sound-attenuating boxes (San Diego Instruments, San Diego, Calif.). Each operant chamber consisted of a stainless steel grid floor and a metal wheel manipulandum located on one wall, which required a 0.2 N force to rotate it a quarter turn. Gold-contact swivel commutators and bipolar leads connected the animals in the stimulation circuit (Plastics One, Roanoke, Va.). Brain stimulation was administered by constant current stimulators (Stimtek 1200, San Diego Instruments, San Diego, Calif.). Surgical Procedure The rats were prepared with 11 mm stainless steel bipolar electrodes (Plastics One; diameter=0.25 mm) in the posterior lateral hypothalamus (AP −0.5 mm from bregma; L±1.7 mm; DV −8.3 mm from dura, with the incisor bar set at 5 mm above the interaural line; Pellegrino et al. 1979 under halothane anaesthesia (1-1.5% halothane/oxygen mixture). Subjects were allowed to recover for at least seven days before any behavioral testing. Half of the electrodes were positioned on the right hemisphere and the other half on the left hemisphere to counterbalance possible brain asymmetries. […] The subjects were initially trained to turn the wheel manipulandum on a fixed ratio 1 schedule of reinforcement. […] The current intensity delivered was adjusted for each animal and typically ranged from 100 to 200 μA. After successful familiarization with this procedure (2 sessions of 100 reinforcers in less than 20 minutes), the rats were gradually trained on a discrete-trial, current-threshold procedure. At the start of each trial rats received a non-contingent electrical stimulus. During the following 7.5 sec, the limited hold, if the subjects responded by turning the wheel manipulandum a quarter turn (positive response) they received a second, contingent stimulus identical to the previous non-contingent stimulus. During a 2 sec period immediately following a positive response, further responses were recorded as extra responses but had no consequence. If no response occurred during the 7.5 sec limited hold period a negative response was recorded. […] Stimulation intensities were varied according to the classical psychophysical method of limits. The subjects received four alternating series of ascending and descending current intensities starting with a descending series. Within each series the stimulus intensity was altered by 5 μA steps between each set of trials (three trials per set). After training in the above procedure, rats were tested until stable baseline thresholds had been achieved L+10% over a 5-day period). […] During the ascending series, the reverse situation defined the threshold. Thus, during each session, four current-thresholds were recorded and the mean of these values was taken as the current-threshold for each subject for each test session. Response Latency: The latency between the onset of the non-contingent stimulus and a positive response was recorded as the response latency. The response latency for each test session was defined as the mean response latency of all trials during which a positive response occurred. […]
# [4] = tested on: rats; settings: single high dose 120-300 mg/kg orally, rats (Ryan et al. 2001); cited from earlier work
# [5] = Lemberger et al. 1985; Prakash and Foster 1999; cited from earlier work
SMILES,duration of amphetamine withdrawal reward deficits [1],"reward thresholds ([2]; p-MPPI 1, 3, 10 mg/kg alone)",response latencies ([2]; p-MPPI 1-10 mg/kg (Example 4.2)),response latencies during withdrawal [3],return to baseline reward threshold levels before the amphetamine-withdrawing non-drug-treated rats [3] [h],body weight during amphetamine withdrawal [3],reward thresholds [3],body weight and food consumption [4],"brain reward thresholds ([2]; paroxetine 1.25-10 mg/kg, 120 min before test)",half-life [5]
CNCCC(Oc1ccc(C(F)(F)F)cc1)c1ccccc1 (centres unmarked) [fluoxetine],reduced the duration of the reward deficits,,,,,,,,,
COc1ccccc1N1CCN(CCN(C(=O)c2ccc(I)cc2)c2ccccn2)CC1.Cl [p-MPPI],,had no effect on reward thresholds,had no effect on response latencies,had no effect on response latencies,24,appeared to gain weight similarly to vehicle-treated rats,Neither paroxetine (FIG. 4A & 4D) nor p-MPPI (FIG. 20B and 20E) had an effect on thresholds of saline-exposed animals,,,
"Fc1ccc([C@@H]2CCNC[C@H]2COc2ccc3c(c2)OCO3)cc1 [paroxetine, Paroxetine hydrochloride]",,,,significantly slower than those of either vehicle or p-MPPI treated rats,24,did not gain weight during withdrawal,Neither paroxetine (FIG. 4A & 4D) nor p-MPPI (FIG. 20B and 20E) had an effect on thresholds of saline-exposed animals,produces a reduction in body weight and food consumption,had no statistically significant effect on thresholds,approximately 24 hours
